Where only a bound is given, the exact number is not on record here.

In the assay the target is T1, full-length human PKCι (Homo sapiens, UniProt P41743).
T1 construct: Recombinant, full-length human PKCι expressed in Sf21 insect cells is also commercially available; purchased EMD Millipore; host or cells: Sf21 insect cells (baculovirus)
T1 sequence (P41743 1-596): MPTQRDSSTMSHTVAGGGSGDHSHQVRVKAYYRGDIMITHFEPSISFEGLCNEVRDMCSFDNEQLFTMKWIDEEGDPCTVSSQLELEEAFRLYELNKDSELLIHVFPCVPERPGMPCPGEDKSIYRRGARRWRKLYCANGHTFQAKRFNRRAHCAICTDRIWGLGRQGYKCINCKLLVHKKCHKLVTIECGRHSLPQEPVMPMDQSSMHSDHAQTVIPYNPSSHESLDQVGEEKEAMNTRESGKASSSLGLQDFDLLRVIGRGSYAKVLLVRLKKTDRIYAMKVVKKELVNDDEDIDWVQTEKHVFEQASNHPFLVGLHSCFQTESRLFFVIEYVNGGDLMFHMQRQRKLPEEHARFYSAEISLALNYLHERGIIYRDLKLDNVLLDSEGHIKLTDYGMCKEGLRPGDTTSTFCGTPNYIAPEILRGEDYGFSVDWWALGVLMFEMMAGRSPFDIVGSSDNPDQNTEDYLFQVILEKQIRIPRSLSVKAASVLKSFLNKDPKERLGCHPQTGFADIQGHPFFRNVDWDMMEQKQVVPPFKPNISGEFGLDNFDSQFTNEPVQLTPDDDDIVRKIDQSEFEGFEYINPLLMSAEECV
Kind of assay: PKCι IC50 IMAP fluorescence polarisation assay, full-length enzyme, 150 μM ATP. In kind it is biochemical. To be noted: read-out: IC50 in IMAP assay against full length PKCi at 150 μM ATP. In short, it runs like this:
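IMAP fluorescence polarisation kinase assay: 15 pM baculovirus-expressed human PKCiota with 100 nM FAM-pseudosubstrate peptide and 150 μM ATP, 1 h at 25 °C. IMAP detection reagent then 2 h at 25 °C before FP measurement. Inhibition referenced to no-compound and no-enzyme controls for IC50 fitting.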
With `FC(F)(F)c1cc2c(-c3nc(N4CC[C@@H]5CNC[C@@H]54)c4c(C5CC5)cncc4n3)ccnc2[nH]1` [Example 21, 5-Cyclopropyl-4-(3aR,6aR)-hexahydro-pyrrolo[3,4-b]pyrrol-1-yl-2-(2-trifluoromethyl-1H-pyrrolo[2,3-b]pyridin-4-yl)-pyrido[3,4-d]pyrimidine], the IC50 was below 100 nM.

For `c1ccc2c(c1)[nH]c1nccc(-c3nc(NC4CCCNCC4)c4c(C5CCC5)cncc4n3)c12` (centres unmarked) [Example 22, Azepan-4-yl-[5-cyclobutyl-2-(9H-pyrido[2,3-b]indol-4-yl)-pyrido[3,4-d]pyrimidin-4-yl]-amine], the 50% inhibitory concentration (IC50) is below 100 nM.

With `COc1ccccc1-c1cc2c(-c3nc(N(C)C4CCNCC4(C)C)c4c(C5CC5)cncc4n3)ccnc2[nH]1` (centres unmarked) [Example 23, {5-Cyclopropyl-2-[2-(2-methoxy-phenyl)-1H-pyrrolo[2,3-b]pyridin-4-yl]-pyrido[3,4-d]pyrimidin-4-yl}-(3,3-dimethyl-piperidin-4-yl)-methyl-amine], the IC50 is below 100 nM.

On to `CN(c1nc(-c2ccnc3[nH]c(-c4ccc(Cl)cc4Cl)cc23)nc2cncc(C3CC3)c12)C1CCNCC1(C)C` (centres unmarked) [Example 24, {5-Cyclopropyl-2-[2-(2,4-dichloro-phenyl)-1H-pyrrolo[2,3-b]pyridin-4-yl]-pyrido[3,4-d]pyrimidin-4-yl}-(3,3-dimethyl-piperidin-4-yl)-methyl-amine], for which the IC50 is below 100 nM.

Take `Clc1ccccc1-c1cc2c(-c3nc(N[C@H]4[C@@H]5CC[C@H]4CNC5)c4c(C5CC5)cncc4n3)ccnc2[nH]1` [Example 25, (1R,5S,8R)-3-Aza-bicyclo[3.2.1]oct-8-yl-{2-[2-(2-chloro-phenyl)-1H-pyrrolo[2,3-b]pyridin-4-yl]-5-cyclopropyl-pyrido[3,4-d]pyrimidin-4-yl}-amine]: the IC50 was 100 to 1000 nM.

For `Clc1ccccc1-c1cc2c(-c3nc(N[C@@H]4[C@@H]5CC[C@H]4CNC5)c4c(C5CC5)cncc4n3)ccnc2[nH]1` [Example 26, (1R,5S,8S)-3-Aza-bicyclo[3.2.1]oct-8-yl-{2-[2-(2-chloro-phenyl)-1H-pyrrolo[2,3-b]pyridin-4-yl]-5-cyclopropyl-pyrido[3,4-d]pyrimidin-4-yl}-amine], the IC50 was in the range of 100 to 1000 nM.

Regarding `CN(c1nc(-c2ccnc3[nH]c(Sc4ccccc4)cc23)nc2cncc(C3CCC3)c12)C1CCNCC1` [Example 28, [5-Cyclobutyl-2-(2-phenylsulfanyl-1H-pyrrolo[2,3-b]pyridin-4-yl)-pyrido[3,4-d]pyrimidin-4-yl]-methyl-piperidin-4-yl-amine], the IC50 was below 100 nM.

`CN(c1nc(-c2ccnc3[nH]c(Sc4ccccc4)cc23)nc2cncc(C3CC3)c12)C1CCNCC1(C)C` (centres unmarked) [Example 29, [5-Cyclopropyl-2-(2-phenylsulfanyl-1H-pyrrolo[2,3-b]pyridin-4-yl)-pyrido[3,4-d]pyrimidin-4-yl]-(3,3-dimethyl-piperidin-4-yl)-methyl-amine]: the IC50 is below 100 nM.

For `COc1nc(-c2ccnc3[nH]c4ccccc4c23)nc2cncc(C3CCC3)c12` [Example 30, 4-(5-Cyclobutyl-4-methoxy-pyrido[3,4-d]pyrimidin-2-yl)-9H-pyrido[2,3-b]indole], the concentration for half-maximal inhibition (IC50) is 10000 to 40000 nM.

For the molecule `CN(c1nc(-c2ccnc3[nH]c4ccccc4c23)nc2cncc(C3CCC3)c12)C1CCNCC1(C)C` (centres unmarked) [Example 31, [5-Cyclobutyl-2-(9H-pyrido[2,3-b]indol-4-yl)-pyrido[3,4-d]pyrimidin-4-yl]-(3,3-dimethyl-piperidin-4-yl)-methyl-amine], the concentration for half-maximal inhibition (IC50) is below 100 nM.

As to `CN(c1nc(-c2ccnc3[nH]c(-c4csc(C(C)(C)C)n4)cc23)nc2cncc(C3CC3)c12)C1CCNCC1(C)C` (centres unmarked) [Example 32, {2-[2-(2-tert-Butyl-thiazol-4-yl)-1H-pyrrolo[2,3-b]pyridin-4-yl]-5-cyclopropyl-pyrido[3,4-d]pyrimidin-4-yl}-(3,3-dimethyl-piperidin-4-yl)-methyl-amine], the half-inhibitory concentration (IC50) was below 100 nM.

Take `c1ccc2c(c1)[nH]c1nccc(-c3nc(N[C@H]4[C@@H]5CNC[C@@H]54)c4c(C5CCC5)cncc4n3)c12` [Example 33, (2R,6S)-3-Aza-bicyclo[3.1.0]hex-6-yl-[(S)-5-cyclobutyl-2-(9H-pyrido[2,3-b]indol-4-yl)-pyrido[3,4-d]pyrimidin-4-yl]-amine]: the IC50 is below 100 nM.

Turning to `CC1(C)CNCCC1Nc1nc(-c2ccnc(Nc3cc4ccccn4n3)c2)nc2cncc(C3CC3)c12` (centres unmarked) [Example 35, {5-Cyclopropyl-2-[2-(pyrazolo[1,5-a]pyridin-2-ylamino)-pyridin-4-yl]-pyrido[3,4-d]pyrimidin-4-yl}-(3,3-dimethyl-piperidin-4-yl)-amine], the half-inhibitory concentration (IC50) was below 100 nM.

As for `CN(c1nc(-c2ccnc(Nc3cc4ccccn4n3)c2)nc2cncc(C3CC3)c12)C1CCNCC1(C)C` (centres unmarked) [Example 36, {5-Cyclopropyl-2-[2-(pyrazolo[1,5-a]pyridin-2-ylamino)-pyridin-4-yl]-pyrido[3,4-d]pyrimidin-4-yl}-(3,3-dimethyl-piperidin-4-yl)-methyl-amine], the concentration for half-maximal inhibition (IC50) was below 100 nM.

On to `c1cc(-c2nc(N3CCNCC3)c3c(C4CC4)cncc3n2)cc(Nc2nc(C3CC3)cs2)n1` [Example 37, [4-(5-Cyclopropyl-4 piperazin-1-yl-pyrido[3,4-d]pyrimidin-2-yl)-pyridin-2-yl]-(4-cyclopropyl-thiazol-2-yl)-amine], for which the concentration for half-maximal inhibition (IC50) is below 100 nM.

For `c1cc(-c2nc(N3CCNCC3)c3c(C4CCC4)cncc3n2)cc(Nc2nc(C3CC3)cs2)n1` [Example 38, [4-(5-Cyclobutyl-4-piperazin-1-yl-pyrido[3,4-d]pyrimidin-2-yl)-pyridin-2-yl]-(4-cyclopropyl-thiazol-2-yl)-amine], the IC50 was below 100 nM.

On to `CC1(C)CNCCC1Nc1nc(-c2ccnc(Nc3nc(C4CC4)cs3)c2)nc2cncc(C3CC3)c12` (centres unmarked) [Example 39, {5-Cyclopropyl-2-[2-(4-cyclopropyl-thiazol-2-ylamino)-pyridin-4-yl]-pyrido[3,4-d]pyrimidin-4-yl}-(3,3-dimethyl-piperidin-4-yl)-amine], for which the IC50 was in the range of 100 to 1000 nM.

Turning to `Fc1ccc(-c2cc3c(-c4nc(N5CCNCC5)c5c(C6CC6)cncc5n4)ccnc3[nH]2)c(F)n1` [Example 40, 5-Cyclopropyl-2-[2-(2,6-difluoro-pyridin-3-yl)-1H-pyrrolo[2,3-b]pyridin-4-yl]-4-piperazin-1-yl-pyrido[3,4-d]pyrimidine], the half-inhibitory concentration (IC50) is below 100 nM.

As for `Cc1ccc(-c2cc3c(-c4nc(N5CCNCC5)c5c(C6CC6)cncc5n4)ccnc3[nH]2)s1` [Example 41, 5-Cyclopropyl-2-[2-(5-methyl-thiophen-2-yl)-1H-pyrrolo[2,3-b]pyridin-4-yl]-4-piperazin-1-yl-pyrido[3,4-d]pyrimidine], the concentration for half-maximal inhibition (IC50) was below 100 nM.

Turning to `Cc1ccc(-c2cc3c(-c4nc(N5CCNCC5)c5c(C6CC6)cncc5n4)ccnc3[nH]2)o1` [Example 42, 5-Cyclopropyl-2-[2-(5-methyl-furan-2-yl)-1H-pyrrolo[2,3-b]pyridin-4-yl]-4-piperazin-1-yl-pyrido[3,4-d]pyrimidine], the IC50 was below 100 nM.

Take `Fc1ncccc1-c1cc2c(-c3nc(N4CCNCC4)c4c(C5CC5)cncc4n3)ccnc2[nH]1` [Example 43, 5-Cyclopropyl-2-[2-(2-fluoro-pyridin-3-yl)-1H-pyrrolo[2,3-b]pyridin-4-yl]-4-piperazin-1-yl-pyrido[3,4-d]pyrimidine]: the IC50 is below 100 nM.

Regarding `CN(c1nc(-c2ccnc3[nH]c4ccccc4c23)nc2cncc(C3CCC3)c12)C1CCCNCC1` (centres unmarked) [Example 44, Azepan-4-yl-[5-cyclobutyl-2-(9H-pyrido[2,3-b]indol-4-yl)-pyrido[3,4-d]pyrimidin-4-yl]-methyl-amine], the IC50 is below 100 nM.

For the molecule `CN(c1nc(-c2ccnc3[nH]c(-c4cc(Cl)ccc4Cl)cc23)nc2cncc(C3CC3)c12)C1CCNCC1(C)C` (centres unmarked) [Example 45, {5-Cyclopropyl-2-[2-(2,5-dichloro-phenyl)-1H-pyrrolo[2,3-b]pyridin-4-yl]-pyrido[3,4-d]pyrimidin-4-yl}-(3,3-dimethyl-piperidin-4-yl)-methyl-amine], the IC50 was below 100 nM.

Regarding `Clc1ccc(Cl)c(-c2cc3c(-c4nc(N5CCNCC5)c5c(C6CC6)cncc5n4)ccnc3[nH]2)c1` [Example 46, 5-Cyclopropyl-2-[2-(2,5-dichloro-phenyl)-1H-pyrrolo[2,3-b]pyridin-4-yl]-4-piperazin-1-yl-pyrido[3,4-d]pyrimidine], the IC50 is below 100 nM.

Turning to `CC1(C)CNCCC1Nc1nc(-c2ccnc(Nc3ccccc3)c2)nc2cncc(C3CC3)c12` (centres unmarked) [Example 47, [5-Cyclopropyl-2-(2-phenylamino-pyridin-4-yl)-pyrido[3,4-d]pyrimidin-4-yl]-(3,3-dimethyl-piperidin-4-yl)-amine], the IC50 was below 100 nM.

On to `CC1(C)CNCCC1Nc1nc(-c2ccnc(Nc3ccc(F)cn3)c2)nc2cncc(C3CC3)c12` (centres unmarked) [Example 48, {5-Cyclopropyl-2-[2-(5-fluoro-pyridin-2-ylamino)-pyridin-4-yl]-pyrido[3,4-d]pyrimidin-4-yl}-(3,3-dimethyl-piperidin-4-yl)-amine], for which the IC50 is below 100 nM.

(Values after US10414763B2 (CANCER RESEARCH TECHNOLOGY LIMITED, priority 2014, dated 2019).)
